PMC2788963 (Bioorganic & medicinal chemistry letters, 2009)

Molecular target: SERT (Rattus norvegicus, UniProt P31652)
Type: binding
Details: selectivity, ratio of Ki values

Sequence of SERT (P31652 whole entry): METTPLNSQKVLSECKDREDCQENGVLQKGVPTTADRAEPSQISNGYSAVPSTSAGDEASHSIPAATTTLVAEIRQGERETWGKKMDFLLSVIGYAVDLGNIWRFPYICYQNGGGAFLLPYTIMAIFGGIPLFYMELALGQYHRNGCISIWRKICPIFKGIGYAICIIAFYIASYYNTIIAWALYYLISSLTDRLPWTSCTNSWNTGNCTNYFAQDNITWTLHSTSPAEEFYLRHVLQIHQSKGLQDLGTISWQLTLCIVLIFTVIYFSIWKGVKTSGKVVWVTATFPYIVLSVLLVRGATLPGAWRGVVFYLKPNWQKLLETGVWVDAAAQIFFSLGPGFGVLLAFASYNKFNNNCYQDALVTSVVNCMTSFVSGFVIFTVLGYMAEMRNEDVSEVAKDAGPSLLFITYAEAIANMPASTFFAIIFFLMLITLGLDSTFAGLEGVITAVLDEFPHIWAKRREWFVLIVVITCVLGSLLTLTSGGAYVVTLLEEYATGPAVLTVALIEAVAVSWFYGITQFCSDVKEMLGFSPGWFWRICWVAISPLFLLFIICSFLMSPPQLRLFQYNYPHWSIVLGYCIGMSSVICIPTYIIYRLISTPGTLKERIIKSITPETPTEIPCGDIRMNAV

Clc1ccc(CO[C@@]2(c3ccc(Cl)cc3)C[C@H]3CC[C@@H](C2)N3)cc1 [7f]
NET/SERT: 23,700
